From ChEMBL document CHEMBL1201862, “PubChem BioAssay data set” (2004)
Blank lines part the entries; values can stand above or below the compound they belong to. The source made the active and inactive calls.

Tests used:
[1] = cells; format: functional, cell-based; details: HEK-CNG
[2] = tested on: HEK293; assay: NOD1 signaling inhibitors, primary screen, cell-based, luminescence, uHTS (AID 1578); format: functional; details: Homo sapiens
[3] = control 3'UTR Renilla luciferase suppression, dose response, counter-screen for Shn3 inhibitor project, cell-based, Clone20-Shn3RL, cherry-picked (AID 624133); format: functional
[4] = tested on: HEK293; assay: NOD2 signaling inhibitors in MDP-stimulated cells, cell-based, uHTS, luminescence (AID 2001); format: functional; details: Homo sapiens
[5] = molecular target: T1, Galanin receptor type 3 (Homo sapiens, UniProt O60755); assay: Fluorescence-based cell-based primary high throughput dose response assay to identify antagonists of the Galanin Receptor 3 (GalR3).; format: functional
T1 sequence (O60755 whole entry): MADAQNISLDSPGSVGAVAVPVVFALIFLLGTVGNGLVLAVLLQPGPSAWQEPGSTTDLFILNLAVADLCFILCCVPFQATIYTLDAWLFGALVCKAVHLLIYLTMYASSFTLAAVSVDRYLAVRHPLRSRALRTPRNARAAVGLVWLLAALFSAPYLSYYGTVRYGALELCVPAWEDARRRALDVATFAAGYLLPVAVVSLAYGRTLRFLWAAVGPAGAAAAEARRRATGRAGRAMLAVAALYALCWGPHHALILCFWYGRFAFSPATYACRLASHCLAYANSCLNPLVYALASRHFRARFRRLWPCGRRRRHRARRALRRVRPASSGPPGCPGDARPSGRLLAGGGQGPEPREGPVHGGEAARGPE

[6] = HepG2 cell cytotoxicity, dose response, cytotoxicity control for Shn3 inhibitor project, CellTiter-Glo, cherry-picked (AID 624134); format: functional, cell-based
[7] = tested on: HEK293; assay: cells; format: functional, cell-based; details: Homo sapiens
[8] = tested on: HEK293; assay: cells; format: functional, cell-based; details: Homo sapiens; remark: listed apart in the source
[9] = Shn3 3'UTR reporter inhibitors, dose response, cell-based, Clone20 osteoblasts, firefly luciferase, cherry-picked (AID 624132); format: functional;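 note: firefly luciferase luminescence from reporter carrying the Shn3 3'UTR in osteoblasts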
[10] = molecular target: COUP transcription factor 2 (Homo sapiens, UniProt P24468); assay: Luminescence-based cell-based high throughput dose response assay to identify inhibitors of COUP-TFII (NR2F2).; format: functional;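 note: HEK293 cells transiently cotransfected with COUP-TFII expression vector and reporter; luciferase reporter luminescence driven by COUP-TFII from the pX2-168 reporter plasmid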
[11] = molecular target: 1-phosphatidylinositol 4,5-bisphosphate phosphodiesterase beta-3 (Homo sapiens, UniProt Q01970); assay: Fluorescence-based biochemical high throughput dose response assay to identify inhibitors of phospholipase C isozymes (PLC-B3).
[12] = molecular target: 1-phosphatidylinositol 4,5-bisphosphate phosphodiesterase gamma-1 (Homo sapiens, UniProt P19174); assay: Counterscreen for inhibitors of phospholipase C isozymes (PLC-B3): Fluorescence-based biochemical high throughput dose response assay to identify inhibitors of phospholipase C isozymes (PLC-gamma1).
[13] = molecular target: Kallikrein-7 (Homo sapiens, UniProt P49862); assay: Fluorescence Intensity-based biochemical primary high throughput dose response assay to identify activators of kallikrein-7 (K7) zymogen.
[14] = NIH:OVCAR-3 ovarian cancer cell cytotoxicity, dose response, PAX8 inhibitor project, plate reader, dry powder samples (AID 743044); format: functional, cell-based
[15] = molecular target: Paired box protein Pax-8 (Homo sapiens, UniProt Q06710); assay: inhibitors of PAX8-driven TPO luciferase reporter, dose response, RMG-I cells, cherry-pick (AID 687027); format: functional, cell-based;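 note: luciferase reporter driven by Pax8 target thyroperoxidase promoter measured by SteadyGlo luminescence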
[16] = IOSE-T80 ovarian epithelial cell cytotoxicity, dose response, cytotoxicity control for PAX8 inhibitor project, plate reader, dry powder samples (AID 743045); format: functional, cell-based
[17] = cytotoxicity in OVCAR8 ovarian cancer cells, dose response, PAX8 project, cell-based, plate reader, dry powder samples (AID 743197); format: functional; details: OVCAR-8
[18] = human group III sPLA2 inhibitors, dose response, biochemical, QFRET, IC50 (AID 743457);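 note: green fluorescence rise as the enzyme cleaves BODIPY PC-A2 in liposomes; potency for inhibition of the enzyme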

Sequence of COUP transcription factor 2 (P24468 whole entry): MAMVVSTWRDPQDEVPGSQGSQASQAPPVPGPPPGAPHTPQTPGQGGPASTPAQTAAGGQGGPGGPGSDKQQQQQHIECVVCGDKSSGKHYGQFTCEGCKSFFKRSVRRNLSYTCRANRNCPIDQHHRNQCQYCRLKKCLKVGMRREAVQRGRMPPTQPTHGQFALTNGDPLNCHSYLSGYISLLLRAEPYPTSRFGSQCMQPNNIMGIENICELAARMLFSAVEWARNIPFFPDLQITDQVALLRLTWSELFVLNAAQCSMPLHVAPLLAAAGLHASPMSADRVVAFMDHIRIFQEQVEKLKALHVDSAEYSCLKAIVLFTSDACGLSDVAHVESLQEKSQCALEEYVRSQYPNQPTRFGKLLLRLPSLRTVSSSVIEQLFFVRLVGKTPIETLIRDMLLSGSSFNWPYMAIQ
Sequence of Kallikrein-7 (P49862 whole entry): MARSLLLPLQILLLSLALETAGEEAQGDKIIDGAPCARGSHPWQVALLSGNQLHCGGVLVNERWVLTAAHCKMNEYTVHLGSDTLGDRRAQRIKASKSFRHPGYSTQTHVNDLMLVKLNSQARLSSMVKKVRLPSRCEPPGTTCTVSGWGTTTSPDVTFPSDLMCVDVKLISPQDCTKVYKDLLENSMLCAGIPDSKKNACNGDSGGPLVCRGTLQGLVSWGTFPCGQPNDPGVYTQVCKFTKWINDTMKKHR
Sequence of 1-phosphatidylinositol 4,5-bisphosphate phosphodiesterase gamma-1 (P19174 whole entry): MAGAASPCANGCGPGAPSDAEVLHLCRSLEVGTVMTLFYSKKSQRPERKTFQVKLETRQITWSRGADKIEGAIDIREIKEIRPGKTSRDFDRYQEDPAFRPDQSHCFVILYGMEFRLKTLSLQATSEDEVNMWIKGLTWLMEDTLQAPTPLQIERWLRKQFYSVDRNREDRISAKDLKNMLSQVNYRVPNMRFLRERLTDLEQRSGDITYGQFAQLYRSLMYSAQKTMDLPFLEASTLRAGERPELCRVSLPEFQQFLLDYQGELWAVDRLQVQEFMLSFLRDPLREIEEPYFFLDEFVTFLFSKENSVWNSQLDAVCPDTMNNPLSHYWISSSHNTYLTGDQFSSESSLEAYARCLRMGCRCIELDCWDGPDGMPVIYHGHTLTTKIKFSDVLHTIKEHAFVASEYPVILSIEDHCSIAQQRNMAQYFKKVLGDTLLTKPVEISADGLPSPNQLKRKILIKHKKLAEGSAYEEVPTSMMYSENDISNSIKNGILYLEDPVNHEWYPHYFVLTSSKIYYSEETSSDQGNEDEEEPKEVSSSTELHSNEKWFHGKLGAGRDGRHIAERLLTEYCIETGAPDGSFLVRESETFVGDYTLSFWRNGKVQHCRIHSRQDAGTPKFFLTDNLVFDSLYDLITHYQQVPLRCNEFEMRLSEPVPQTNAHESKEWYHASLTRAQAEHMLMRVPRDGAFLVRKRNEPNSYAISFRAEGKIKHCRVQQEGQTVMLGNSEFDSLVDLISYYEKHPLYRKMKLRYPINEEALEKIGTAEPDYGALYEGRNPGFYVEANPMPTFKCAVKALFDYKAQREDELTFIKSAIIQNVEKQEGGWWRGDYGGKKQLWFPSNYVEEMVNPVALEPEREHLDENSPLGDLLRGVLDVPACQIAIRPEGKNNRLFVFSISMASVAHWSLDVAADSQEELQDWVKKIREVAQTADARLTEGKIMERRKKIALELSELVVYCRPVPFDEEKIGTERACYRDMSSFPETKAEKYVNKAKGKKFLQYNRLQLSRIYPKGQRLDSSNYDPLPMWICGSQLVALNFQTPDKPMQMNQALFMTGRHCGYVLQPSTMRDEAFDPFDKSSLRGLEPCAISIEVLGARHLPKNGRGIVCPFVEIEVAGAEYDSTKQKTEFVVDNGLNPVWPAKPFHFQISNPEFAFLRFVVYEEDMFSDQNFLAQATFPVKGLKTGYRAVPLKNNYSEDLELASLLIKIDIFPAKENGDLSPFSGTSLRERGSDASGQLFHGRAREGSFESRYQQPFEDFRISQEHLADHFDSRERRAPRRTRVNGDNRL
Sequence of Paired box protein Pax-8 (Q06710 whole entry): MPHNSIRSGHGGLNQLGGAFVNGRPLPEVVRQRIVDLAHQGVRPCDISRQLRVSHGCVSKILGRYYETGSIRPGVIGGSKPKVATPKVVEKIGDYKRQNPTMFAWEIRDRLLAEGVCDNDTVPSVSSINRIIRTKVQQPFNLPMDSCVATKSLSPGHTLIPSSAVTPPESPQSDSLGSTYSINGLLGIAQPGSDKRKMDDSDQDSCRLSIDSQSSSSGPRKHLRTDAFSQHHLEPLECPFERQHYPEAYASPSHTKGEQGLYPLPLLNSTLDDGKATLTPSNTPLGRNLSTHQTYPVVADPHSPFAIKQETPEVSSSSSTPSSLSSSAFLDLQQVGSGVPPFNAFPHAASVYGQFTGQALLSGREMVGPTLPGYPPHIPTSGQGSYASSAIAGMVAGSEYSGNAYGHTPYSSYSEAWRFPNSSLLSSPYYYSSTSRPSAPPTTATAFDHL
Sequence of 1-phosphatidylinositol 4,5-bisphosphate phosphodiesterase beta-3 (Q01970 whole entry): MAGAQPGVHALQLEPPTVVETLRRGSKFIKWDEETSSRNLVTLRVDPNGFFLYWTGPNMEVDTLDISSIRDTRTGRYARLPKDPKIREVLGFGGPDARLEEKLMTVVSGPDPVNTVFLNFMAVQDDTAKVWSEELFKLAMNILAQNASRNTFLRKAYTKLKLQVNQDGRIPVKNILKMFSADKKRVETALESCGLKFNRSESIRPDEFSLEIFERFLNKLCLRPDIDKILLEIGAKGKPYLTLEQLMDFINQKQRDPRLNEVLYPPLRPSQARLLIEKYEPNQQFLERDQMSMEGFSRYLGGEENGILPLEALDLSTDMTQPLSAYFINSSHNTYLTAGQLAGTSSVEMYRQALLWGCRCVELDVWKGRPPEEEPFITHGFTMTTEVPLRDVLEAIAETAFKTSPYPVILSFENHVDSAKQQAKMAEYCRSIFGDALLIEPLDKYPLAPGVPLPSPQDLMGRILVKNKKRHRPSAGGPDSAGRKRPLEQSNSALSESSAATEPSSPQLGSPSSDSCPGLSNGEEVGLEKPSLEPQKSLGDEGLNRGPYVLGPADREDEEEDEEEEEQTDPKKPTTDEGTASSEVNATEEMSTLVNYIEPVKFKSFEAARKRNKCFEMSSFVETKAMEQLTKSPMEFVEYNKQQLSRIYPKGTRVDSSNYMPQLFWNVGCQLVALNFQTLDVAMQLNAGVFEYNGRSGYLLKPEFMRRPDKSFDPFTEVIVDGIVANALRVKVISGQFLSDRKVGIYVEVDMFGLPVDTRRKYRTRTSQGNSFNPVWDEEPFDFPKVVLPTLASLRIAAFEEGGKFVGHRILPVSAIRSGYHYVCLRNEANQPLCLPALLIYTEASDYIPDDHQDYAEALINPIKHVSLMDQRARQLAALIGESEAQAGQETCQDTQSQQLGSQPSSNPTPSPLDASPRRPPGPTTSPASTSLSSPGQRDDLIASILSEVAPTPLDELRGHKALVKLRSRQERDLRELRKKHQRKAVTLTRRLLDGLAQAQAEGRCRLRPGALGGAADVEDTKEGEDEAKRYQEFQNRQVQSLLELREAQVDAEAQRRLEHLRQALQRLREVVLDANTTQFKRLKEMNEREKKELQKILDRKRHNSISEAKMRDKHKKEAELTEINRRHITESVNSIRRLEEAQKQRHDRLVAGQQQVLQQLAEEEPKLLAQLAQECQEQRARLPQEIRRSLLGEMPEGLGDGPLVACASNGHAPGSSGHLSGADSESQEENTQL

SMILES: O=C(Cc1ccc(Cl)cc1Cl)Nc1ccncc1Cl
EC50 [1]: > 29.9 µM (inactive)
EC50 [2]: 3.7 µM (active)
AC50 [3]: 3.91 µM (active)
IC50 [4]: 6.02 µM (active)
IC50 [5]: 4.44 µM (active)
AC50 [6]: 2.91 µM (active)
IC50 [7]: 5.77 µM (active)
IC50 [8]: > 20 µM (inactive)
AC50 [9]: 1.63 µM (active)
IC50 [10]: 11.6 µM (inactive)

IC50 [11]: > 122 µM (inactive)
IC50 [12]: 30.8 µM (inactive)
SMILES: CC1=C(C(=O)OCc2ccc([N+](=O)[O-])cc2)N2C(=O)C(NC(=O)Cc3ccccc3)C2SC1 (stereo not given)

SMILES: COc1ccc(CNC(=O)c2cccc3c(-c4cccnc4)coc23)cc1OC
EC50 [1]: > 29.9 µM (inactive)
AC50 [3]: 2.29 µM (active)
IC50 [5]: 0.126 µM (active)
AC50 [6]: 1.66 µM (active)
AC50 [9]: 0.9 µM (active)
IC50 [10]: 1.47 µM (active)

EC50 [13]: > 69.5 µM (inactive)
SMILES: CCCc1cc(NCCN(C)C)n2c(nc3ccccc32)c1C#N

EC50 [13]: 20.8 µM (inactive)
SMILES: Cc1ccc2nc(NC(=O)c3ccc4ncsc4c3)sc2c1

SMILES: COc1ccc(S(=O)(=O)Nc2ccc3c(c2)C(=O)N([C@H](C)CO)C[C@H](C)[C@H](CN(C)Cc2ccc(C(F)(F)F)cc2)OCCCC[C@H](C)O3)cc1
AC50 [14]: 22.9 µM (active)
AC50 [15]: 9.51 µM (active)
AC50 [16]: 50.7 µM (active)
AC50 [17]: 31.6 µM (active)

IC50 [18]: > 122 µM (inactive)
SMILES: O=C1c2ccccc2C(=O)c2c(Nc3ccc(CCO)cc3)ccc(O)c21
